In patent US20240294543A1, “CYCLOHEPTA-THIENO-DIAZEPINE DERIVATIVES AS GABA A GAMMA1 PAM” (Hoffmann-La Roche Inc., priority 2021, published 2024):
Where two headings read alike, the source gives them in different places.

Columns and labels:
[1] = target: human GABAA α2β2γ1 receptor (Homo sapiens (Human), UniProt P47869+Q8N1C3); experiment: Radioligand binding assay, competition for [3H]RO7239181, γ1-containing GABAA subtypes; settings: Ki h-GABAA α2β2γ1, membranes of HEK293F cells, [3H]RO7239181 20-30 nM
h-GABA-A α2β2γ1 = h-GABA-A α2β2γ1 (Homo sapiens (Human), UniProt P47869+Q8N1C3); experiment: Two-electrode voltage clamp electrophysiology in Xenopus oocytes expressing GABAA receptors; type: cell-based; settings: for Efficacy (GABA) %: % modulation of GABA EC20 = 100*(Fold increase−1), compound at about 30-fold its Ki α2β2γ1; for Fold increase h-GABA-A α2β2γ1 oocyte @ 30-fold Ki: Xenopus oocytes, GABA EC20, compound at about 30-fold its Ki α2β2γ1
In short: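 Xenopus oocytes injected with receptor subunit RNA and recorded 3–5 days later by two-electrode voltage clamp at −80 mV, room temperature, pH 7.4. GABA applied at EC20 for 1.5 min, with and without test compound. Efficacy = extremum of the point-by-point ratio of the two responses, expressed as % modulation of GABA EC20; ≥3 oocytes per concentration.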

[2] = target: human GABAA α1β3γ2 receptor (Homo sapiens (Human), UniProt P14867+P18507); experiment: Radioligand binding assay, competition for [3H]Flumazenil, γ2-containing GABAA subtypes; settings: for γ2/γ1 Selectivity Ratio: Ki α1β3γ2 (nM)/Ki α2β2γ1 (nM); for LogSel: Log[Ki α1β3γ2 (nM)/Ki α2β2γ1 (nM)]
In short: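 Competition against [3H]Flumazenil binding in HEK293F cells transiently expressing human α1β3γ2 receptors, pellets resuspended in mannitol buffer pH 7,2-7,4. Incubated to equilibrium 1 hour at 4° C, filtered and washed with ice-cold 50 mM Tris pH 7.5, bound radioactivity by liquid scintillation counting. Ki values are means of two determinations.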

[3] = HEK293F cells, [3H]Flumazenil 1 nM, Table 1, read-out: Ki h-GABAA α1β3γ2

Cc1nc2n(n1)-c1sc3c(c1C(c1c(F)cccc1F)=N[C@H]2C)COCCO3 [Example 28, (7S)-9-(2,6-difluorophenyl)-4,7-dimethyl-13,16-dioxa-18-thia-2,3,5,8-tetrazatetracyclo[8.8.0.02,6.011,17]octadeca-1(10),3,5,8,11(17)-pentaene]
Ki ([1]; Table 1): 5.5 nM | Ki ([1]; Table 2): 5.5 nM | Efficacy (GABA) % (h-GABA-A α2β2γ1): 40% | Fold increase h-GABA-A α2β2γ1 oocyte @ 30-fold Ki (h-GABA-A α2β2γ1): 1.40 | Ki [2]: 1940 nM | γ2/γ1 Selectivity Ratio ([2]; Table 1): 353.3 | LogSel ([2]; Table 1): 2.55

C[C@@H]1N=C(c2c(F)cccc2F)c2c(sc3c2COCCO3)-n2nc(C(=O)N3CC(OC(C)(C)C)C3)nc21 [Example 29, (3-tert-butoxyazetidin-1-yl)-[(7S)-9-(2,6-difluorophenyl)-7-methyl-13,16-dioxa-18-thia-2,3,5,8-tetrazatetracyclo[8.8.0.02,6.011,17]octadeca-1(10),3,5,8,11(17)-pentaen-4-yl]methanone]
Ki ([1]; Table 1): 7.7 nM | Ki ([1]; Table 2): 7.7 nM | Efficacy (GABA) % (h-GABA-A α2β2γ1): 79% | Fold increase h-GABA-A α2β2γ1 oocyte @ 30-fold Ki (h-GABA-A α2β2γ1): 1.79 | Ki [2, 3]: 2830 nM | γ2/γ1 Selectivity Ratio ([2]; Table 1): 366.9 | LogSel ([2]; Table 1): 2.56

Cc1nnc2n1-c1sc3c(c1C(c1c(F)cccc1F)=N[C@H]2C)COC[C@H](C)O3 [Example 30, (7S,15S)-9-(2,6-difluorophenyl)-3,7,15-trimethyl-13,16-dioxa-18-thia-2,4,5,8-tetrazatetracyclo[8.8.0.02,6.011,17]octadeca-1(10),3,5,8,11(17)-pentaene]
Ki ([1]; Table 1): 36.9 nM | Ki ([1]; Table 2): 36.9 nM | Efficacy (GABA) % (h-GABA-A α2β2γ1): 150% | Fold increase h-GABA-A α2β2γ1 oocyte @ 30-fold Ki (h-GABA-A α2β2γ1): 2.50 | Ki [2]: 1830 nM | γ2/γ1 Selectivity Ratio ([2]; Table 1): 49.6 | LogSel ([2]; Table 1): 1.70

CCOC1CN(C(=O)c2nc3n(n2)-c2sc4c(c2C(c2c(F)cccc2F)=N[C@H]3C)COCCO4)C1 [Example 31, [(7S)-9-(2,6-Difluorophenyl)-7-methyl-13,16-dioxa-18-thia-2,3,5,8-tetrazatetracyclo[8.8.0.02,6.011,17]octadeca-1(10),3,5,8,11(17)-pentaen-4-yl]-(3-ethoxyazetidin-1-yl)methanone]
Ki ([1]; Table 1): 5.5 nM | Ki ([1]; Table 2): 5.6 nM | Efficacy (GABA) % (h-GABA-A α2β2γ1): 69% | Fold increase h-GABA-A α2β2γ1 oocyte @ 30-fold Ki (h-GABA-A α2β2γ1): 1.69 | Ki [2, 3]: 4540 nM | γ2/γ1 Selectivity Ratio ([2]; Table 1): 818.0 | LogSel ([2]; Table 1): 2.91

Cc1nnc2n1-c1sc3c(c1C(c1c(F)cccc1F)=N[C@H]2C)OCCCC3 [Example 33, (7S)-9-(2,6-difluorophenyl)-3,7-dimethyl-12-oxa-18-thia-2,4,5,8-tetrazatetracyclo[8.8.0.02,6.011,17]octadeca-1(10),3,5,8,11(17)-pentaene]
Ki ([1]; Table 1): 55.9 nM | Ki ([1]; Table 2): 55.9 nM | Efficacy (GABA) % (h-GABA-A α2β2γ1): 76% | Fold increase h-GABA-A α2β2γ1 oocyte @ 30-fold Ki (h-GABA-A α2β2γ1): 1.76 | Ki [2]: 3720 nM | γ2/γ1 Selectivity Ratio ([2]; Table 1): 66.5 | LogSel ([2]; Table 1): 1.82

Cc1nnc2n1-c1sc3c(c1C(c1c(F)cccc1Cl)=N[C@H]2C)COCCO3 [Example 35, (7S)-9-(2-chloro-6-fluoro-phenyl)-3,7-dimethyl-13,16-dioxa-18-thia-2,4,5,8-tetrazatetracyclo[8.8.0.02,6.011,17]octadeca-1(10),3,5,8,11(17)-pentaene]
Ki ([1]; Table 1): 18.8 nM | Ki ([1]; Table 2): 18.8 nM | Efficacy (GABA) % (h-GABA-A α2β2γ1): 61% | Fold increase h-GABA-A α2β2γ1 oocyte @ 30-fold Ki (h-GABA-A α2β2γ1): 1.61 | Ki [2]: 3940 nM | γ2/γ1 Selectivity Ratio ([2]; Table 1): 209.5 | LogSel ([2]; Table 1): 2.32

C[C@@H]1N=C(c2c(F)cccc2F)c2c(sc3c2COCCO3)-n2nc(C(=O)NC3CC3)nc21 [Example 36]
Ki ([1]; Table 1): 56.3 nM | Ki ([1]; Table 2): 56.3 nM | Efficacy (GABA) % (h-GABA-A α2β2γ1): 89% | Fold increase h-GABA-A α2β2γ1 oocyte @ 30-fold Ki (h-GABA-A α2β2γ1): 1.89 | Ki [2, 3]: 4080 nM | γ2/γ1 Selectivity Ratio ([2]; Table 1): 72.6 | LogSel ([2]; Table 1): 1.86

CCNC(=O)c1nc2n(n1)-c1sc3c(c1C(c1c(F)cccc1F)=N[C@H]2C)COCCO3 [Example 37, (7S)-9-(2,6-difluorophenyl)-N-ethyl-7-methyl-13,16-dioxa-18-thia-2,3,5,8-tetrazatetracyclo[8.8.0.02,6.011,17]octadeca-1(10),3,5,8,11(17)-pentaene-4-carboxamide]
Ki ([1]; Table 1): 33.7 nM | Ki ([1]; Table 2): 33.7 nM | Efficacy (GABA) % (h-GABA-A α2β2γ1): 86% | Fold increase h-GABA-A α2β2γ1 oocyte @ 30-fold Ki (h-GABA-A α2β2γ1): 1.86 | Ki [2, 3]: 4080 nM | γ2/γ1 Selectivity Ratio ([2]; Table 1): 121.1 | LogSel ([2]; Table 1): 2.08

Cc1nc2n(n1)-c1sc3c(c1C(c1c(F)cccc1F)=N[C@H]2C)COC[C@H](C)O3 [Example 39, (7S,15S)-9-(2,6-difluorophenyl)-4,7,15-trimethyl-13,16-dioxa-18-thia-2,3,5,8-tetrazatetracyclo[8.8.0.02,6.011,17]octadeca-1(10),3,5,8,11(17)-pentaene]
Ki ([1]; Table 1): 57.8 nM | Ki ([1]; Table 2): 57.8 nM | Efficacy (GABA) % (h-GABA-A α2β2γ1): 150% | Fold increase h-GABA-A α2β2γ1 oocyte @ 30-fold Ki (h-GABA-A α2β2γ1): 2.50 | Ki [2]: 9120 nM | γ2/γ1 Selectivity Ratio ([2]; Table 1): 157.6 | LogSel ([2]; Table 1): 2.20

C[C@@H]1N=C(c2c(F)cccc2F)c2c(sc3c2COC[C@H](C)O3)-n2nc(C(=O)N3CC(F)C3)nc21 [Example 40, [(7S,15S)-9-(2,6-difluorophenyl)-7,15-dimethyl-13,16-dioxa-18-thia-2,3,5,8-tetrazatetracyclo[8.8.0.02,6.011,17]octadeca-1(10),3,5,8,11(17)-pentaen-4-yl]-(3-fluoroazetidin-1-yl)methanone]
Ki ([1]; Table 1): 20.5 nM | Ki ([1]; Table 2): 20.5 nM | Efficacy (GABA) % (h-GABA-A α2β2γ1): 141% | Fold increase h-GABA-A α2β2γ1 oocyte @ 30-fold Ki (h-GABA-A α2β2γ1): 2.41 | Ki [2, 3]: 11600 nM | γ2/γ1 Selectivity Ratio ([2]; Table 1): 568.5 | LogSel ([2]; Table 1): 2.75

C[C@@H]1N=C(c2c(F)cccc2F)c2c(sc3c2COC[C@H](C)O3)-n2nc(C(=O)N3CC(OC(C)(C)C)C3)nc21 [Example 41, (3-tert-butoxyazetidin-1-yl)-[(7S,15S)-9-(2,6-difluorophenyl)-7,15-dimethyl-13,16-dioxa-18-thia-2,3,5,8-tetrazatetracyclo[8.8.0.02,6.011,17]octadeca-1(10),3,5,8,11(17)-pentaen-4-yl]methanone]
Ki ([1]; Table 1): 65.1 nM | Ki ([1]; Table 2): 65.1 nM | Efficacy (GABA) % (h-GABA-A α2β2γ1): 167% | Fold increase h-GABA-A α2β2γ1 oocyte @ 30-fold Ki (h-GABA-A α2β2γ1): 2.67 | Ki [2, 3]: 12300 nM | γ2/γ1 Selectivity Ratio ([2]; Table 1): 188.2 | LogSel ([2]; Table 1): 2.27

CCc1nnc2n1-c1sc3c(c1C(c1c(F)cccc1F)=N[C@H]2C)COCCO3 [Example 42, (7S)-9-(2,6-difluorophenyl)-3-ethyl-7-methyl-13,16-dioxa-18-thia-2,4,5,8-tetrazatetracyclo[8.8.0.02,6.011,17]octadeca-1(10),3,5,8,11(17)-pentaene]
Ki ([1]; Table 1): 31.7 nM | Ki ([1]; Table 2): 31.7 nM | Efficacy (GABA) % (h-GABA-A α2β2γ1): 137% | Fold increase h-GABA-A α2β2γ1 oocyte @ 30-fold Ki (h-GABA-A α2β2γ1): 2.37 | Ki [2]: 4270 nM | γ2/γ1 Selectivity Ratio ([2]; Table 1): 134.9 | LogSel ([2]; Table 1): 2.13

C[C@@H]1N=C(c2c(F)cccc2F)c2c(sc3c2COCCO3)-n2c(C3CC3)nnc21 [Example 43, (7S)-3-cyclopropyl-9-(2,6-difluorophenyl)-7-methyl-13,16-dioxa-18-thia-2,4,5,8-tetrazatetracyclo[8.8.0.02,6.011,17]octadeca-1(10),3,5,8,11(17)-pentaene]
Ki ([1]; Table 1): 23.6 nM | Ki ([1]; Table 2): 23.6 nM | Efficacy (GABA) % (h-GABA-A α2β2γ1): 94% | Fold increase h-GABA-A α2β2γ1 oocyte @ 30-fold Ki (h-GABA-A α2β2γ1): 1.94 | Ki [2]: 5360 nM | γ2/γ1 Selectivity Ratio ([2]; Table 1): 227.2 | LogSel ([2]; Table 1): 2.36
